What was measured:
[1] = target: binding of the NKY13 to G-50I; experiment: Inhibition of the binding of NKY13 to G-50I by sugar chains; set-up: species or system mouse; conditions: inhibition of binding of NKY13 to G-50I by the sugar chain
Experimental: Bovine serum albumin (1%) is added to wells of poly(vinyl chloride) on which, through the mediation of polylysine and glutaraldehyde, is immobilized mucin-type glycopeptide (G-50I) that is isolated from human intestinal cancer cells SW1116 or LS180. After allowing it to stand for 1 hr, the wells are washed, and then a monoclonal antibody NKY13 is added thereto and allowed to react overnight. After washing the wells, Protein A labelled with ^125 I is added, which is allowed to react for 2 hr. After washing the wells, the affinity of NKY13 is measured, taking as index the radioactivity of ^125 I combined with the well.
(§1) Structure of sugar chains recognized by monoclonal antibody NKY13 was investigated on the basis of the inhibition of the binding of the NKY13 to G-50I by the following sugar chains according to the above method. The same test was performed on NS19-9.

[2] = target: NS19-9; experiment: Inhibition of NS19-9 binding by sugar chains (same test performed on NS19-9); conditions: read-out: 50% INHIBITION (μM) NS19-9
Experimental: as §1

IC50 [1] [µM]	IC50 [2] [µM]	Compound
1.86	11.1	CC(=O)N[C@H]1[C@H](O[C@H]2[C@@H](O)[C@@H](CO)O[C@@H](O[C@H]3[C@H](O)[C@@H](O)C(O)O[C@@H]3CO)[C@@H]2O)O[C@H](CO)[C@@H](O[C@@H]2O[C@@H](C)[C@@H](O)[C@@H](O)[C@@H]2O)[C@@H]1O[C@@H]1O[C@H](CO)[C@H](O)[C@H](O[C@]2(C(=O)O)C[C@H](O)[C@@H](NC(C)=O)[C@H]([C@H](O)[C@H](O)CO)O2)[C@H]1O (stereo partly shown)
320	3550	CC(=O)N[C@H]1[C@H](O[C@H]2[C@@H](O)[C@@H](CO)O[C@@H](O[C@H]3[C@H](O)[C@@H](O)C(O)O[C@@H]3CO)[C@@H]2O)O[C@H](CO[C@]2(C(=O)O)C[C@H](O)[C@@H](NC(C)=O)[C@H]([C@H](O)[C@H](O)CO)O2)[C@@H](O)[C@@H]1O[C@@H]1O[C@H](CO)[C@H](O)[C@H](O[C@]2(C(=O)O)C[C@H](O)[C@@H](NC(C)=O)[C@H]([C@H](O)[C@H](O)CO)O2)[C@H]1O (stereo partly shown)
320	3550	CC(=O)N[C@H]1[C@H](O[C@H]2[C@@H](O)[C@@H](CO)O[C@@H](O[C@H]3[C@H](O)[C@@H](O)C(O)O[C@@H]3CO)[C@@H]2O)O[C@H](CO)[C@@H](O)[C@@H]1O[C@@H]1O[C@H](CO)[C@H](O)[C@H](O[C@]2(C(=O)O)C[C@H](O)[C@@H](NC(C)=O)[C@H]([C@H](O)[C@H](O)CO)O2)[C@H]1O (stereo partly shown)
> 10000	> 10000	CC(=O)N[C@H]1[C@H](O[C@H]2[C@@H](O)[C@@H](CO)O[C@@H](O[C@H]3[C@H](O)[C@@H](O)C(O)O[C@@H]3CO)[C@@H]2O)O[C@H](CO[C@]2(C(=O)O)C[C@H](O)[C@@H](NC(C)=O)[C@H]([C@H](O)[C@H](O)CO)O2)[C@@H](O)[C@@H]1O[C@@H]1O[C@H](CO)[C@H](O)[C@H](O)[C@H]1O (stereo partly shown)
> 10000	2320	CC(=O)N[C@H]1[C@H](O[C@H]2[C@@H](O)[C@@H](CO)O[C@@H](O[C@H]3[C@H](O)[C@@H](O)C(O)O[C@@H]3CO)[C@@H]2O)O[C@H](CO)[C@@H](O[C@@H]2O[C@@H](C)[C@@H](O)[C@@H](O)[C@@H]2O)[C@@H]1O[C@@H]1O[C@H](CO)[C@H](O)[C@H](O)[C@H]1O (stereo partly shown)
> 10000	> 10000	CC(=O)N[C@H]1[C@H](O[C@H]2[C@@H](O)[C@@H](CO)O[C@@H](O[C@H]3[C@H](O)[C@@H](O)C(O)O[C@@H]3CO)[C@@H]2O)O[C@H](CO)[C@@H](O[C@@H]2O[C@@H](C)[C@@H](O)[C@@H](O)[C@@H]2O)[C@@H]1O[C@@H]1O[C@H](CO)[C@H](O)[C@H](O)[C@H]1O[C@@H]1O[C@@H](C)[C@@H](O)[C@@H](O)[C@@H]1O (stereo partly shown)
> 10000	> 10000	CC(=O)N[C@H]1[C@H](O[C@H]2[C@@H](O)[C@@H](CO)O[C@@H](O[C@H]3[C@H](O)[C@@H](O)C(O)O[C@@H]3CO)[C@@H]2O)O[C@H](CO)[C@@H](O)[C@@H]1O[C@@H]1O[C@H](CO)[C@H](O)[C@H](O)[C@H]1O (stereo partly shown)
> 10000	> 10000	CC(=O)N[C@H]1[C@H](O[C@H]2[C@@H](O)[C@@H](CO)O[C@@H](O[C@H]3[C@H](O)[C@@H](O)C(O)O[C@@H]3CO)[C@@H]2O)O[C@H](CO)[C@@H](O[C@@H]2O[C@H](CO)[C@H](O)[C@H](O)[C@H]2O)[C@@H]1O[C@@H]1O[C@@H](C)[C@@H](O)[C@@H](O)[C@@H]1O (stereo partly shown)
> 10000	14000	C[C@@H]1OC(O)[C@@H](O)[C@H](O)[C@@H]1O (stereo partly drawn) [L-Fucose]
9000	> 10000	CC(=O)N[C@H]1[C@H]([C@H](O)[C@H](O)CO)OC(O)(C(=O)O)C[C@@H]1O (stereo partly shown) [NeuAc]
9000	> 10000	O=C(CO)N[C@H]1[C@H]([C@H](O)[C@H](O)CO)OC(O)(C(=O)O)C[C@@H]1O (stereo partly shown) [NeuGc]

From patent US5073493A, “Monoclonal antibody NKY13” (Ikuo Yamashina, priority 1987, dated 1991)
